{
  "source": "patent US11564922B2",
  "about": "“Methods of treating crohn's disease and ulcerative colitis” (AbbVie Inc., priority 2017, dated 2023)",
  "key": {"[1]": {"assay": "Solid state forms of upadacitinib: chemical and physical stability"}, "[2]": {"assay": "Solid state forms of upadacitinib: hygroscopicity", "type": "physicochemical"}, "[3]": {"assay": "Solid state forms of upadacitinib: solubility and bioavailability", "type": "physicochemical"}, "[4]": {"test_system": "subjects with moderately to severely active ulcerative colitis", "assay": "Example 20: Phase 3 maintenance study in ulcerative colitis (Study M14-234 Substudy 3), upadacitinib 15 mg or 30 mg QD vs placebo, 52 weeks", "type": "in vivo, human", "conditions": "for Clinical remission per Adapted Mayo Score at Week 52, % / Clinical remission at Week 52, Treatment Difference vs. PBO / Discontinued from Study Drug, Adverse events (primary reason), % / Discontinued from Study Drug, Lack of efficacy (primary reason), %: ITTA; for Clinical remission per Adapted Mayo Score at Week 52, % / Clinical remission at Week 52, Treatment Difference vs. PBO: NRI-C; for Corticosteroid-free remission, % of patients: patients in remission at completion of the 8-week induction studies; for Clinical remission (per Adapted Mayo Score) / Endoscopic improvement / Histologic-endoscopic mucosal improvement / Corticosteroid-free clinical remission: Week 52; for Corticosteroid-free clinical remission: among patients with clinical remission after 8 weeks of induction"}, "[5]": {"test_system": "subjects with moderately to severely active CD", "assay": "Study M13-740: Phase 2 induction study, immediate-release upadacitinib vs placebo", "type": "in vivo, human", "conditions": "induction phase of Study M13-740, immediate-release formulation, doses of 6 mg BID and higher"}, "[6]": {"assay": "Pharmacokinetic exposure of once-daily formulation versus immediate-release formulation (AUC, Cmin, Cmax)", "type": "in vivo, human", "conditions": "15 mg QD and 30 mg QD once-daily formulation versus 6 mg BID and 12 mg BID immediate-release formulation, respectively", "protocol": "This study evaluated two maintenance doses of upadacitinib at 15 mg and 30 mg QD. […] In addition, all the currently available PK, pharmacodynamic, safety, and efficacy data from upadacitinib studies were used to support the selection of these doses. […] Following induction with 45 mg QD, doses of 15 mg QD and 30 mg QD are expected to maintain clinical and endoscopic response while having better long-term safety profile compared to higher doses. Doses of 15 mg QD and 30 mg QD for up to 240 weeks were expected to be efficacious with an acceptable safety profile."}, "[7]": {"test_system": "subjects with moderately to severely active ulcerative colitis", "assay": "Example 19: Phase 3 induction study in ulcerative colitis (Study M14-675), upadacitinib 45 mg QD vs placebo", "experimental": "The primary objective of this study is to evaluate the efficacy and safety of upadacitinib 45 mg once daily (QD) compared to placebo in inducing clinical remission (per Adapted Mayo score) in subjects with moderately to severely active ulcerative colitis (UC).\nThe secondary objectives of the study are to evaluate the efficacy of upadacitinib 45 mg QD comparing with placebo in ranked secondary endpoints of achieving endoscopic improvement, endoscopic remission, clinical response per Adapted Mayo Score, clinical response per Partial Adapted Mayo score, histologic-endoscopic mucosal improvement, no bowel urgency, no abdominal pain, histologic improvement, mucosal healing, and change in IBDQ total score and FACIT-F score.\nMales and females between 18 and 75 years of age with a diagnosis of moderately to severely active UC. […] The study will consist of a mixed population: biologic-inadequate responders (bio-IR) and non-biologic-inadequate responders (non-bio-IR).\nThe randomization will be stratified by bio-IR status (bio-IR vs non-bio-IR), corticosteroid use (yes or no) and Adapted Mayo score (≤7 or >7) at Baseline. Within bio-IR, the randomization will be further stratified by number of prior biologic treatments (≤1 or >1). Within non-bio-IR, the randomization will be further stratified by previous biologic use (yes or no).\nThe blind from Part 1 will not be broken for the duration of the study as subjects will be assessed as clinical non-responders at the 8 Week Visit of Part 1 and will be moved to Part 2 for further treatment in the study without identifying their initial treatment assignment. All eligible subjects entering Part 2 will receive open-label treatment with upadacitinib 45 mg QD for 8 additional weeks (until Week 16). At Week 16, an endoscopy will be performed to evaluate the treatment effect. A flexible rectosigmoidoscopy is recommended. However, the use of flexible sigmoidoscopy or colonoscopy is at the investigators' discretion based on local practice.\nFor the assessment of the clinical endpoints, the stool frequency and the rectal bleeding subscore will be calculated as an average of the entries recorded into the subject's diary from the most recent consecutive 3-day period prior to each study visit. If diary entries from the 3 consecutive days prior to the visit are not available, the 3 most recent consecutive days in the last 10 days will be utilized. If data is not available for 3 consecutive days, the average of the entries from the most recent 3 non-consecutive days in the last 10 days will be utilized. Clinical endpoints of abdominal pain and bowel urgency from subject diaries will be measured at the same time period as the stool frequency and rectal bleeding subscores. Proportion of subjects who report no abdominal pain and proportion of subjects who report no bowel urgency in the 3 days will be estimated.\nSubjects will undergo a full colonoscopy with biopsy for histologic assessment during Screening with local investigator assessment for Mayo endoscopic subscore for initial eligibility assessment, confirmed by a central reader prior to randomization. At end of treatment (Week 8 in Part 1) a full colonoscopy or flexible sigmoidoscopy, depending on the extent of disease at Screening, will be performed.\nThe endoscopic subscore result from the central reader during the screening period will be used to evaluate the eligibility of a subject to enroll in the study and for all efficacy assessments at Week 8 of Part 1.\nMale or female between 16 and 75 years of age at Baseline."}},
  "note": "“Also recorded” adds a separate entry of the source.",
  "data": [
    {"smiles": "CC[C@@H]1CN(C(=O)NCC(F)(F)F)C[C@@H]1c1cnc2cnc3[nH]ccc3n12", "note": "[Amorphous Freebase]", "values": [
      {"measurement": "Chemical stability", "setting": "[1]", "result": "acceptable chemical stability"},
      {"measurement": "Stability to light and peroxide", "setting": "[1]", "result": "acceptable stability to light and peroxide"},
      {"measurement": "Hygroscopicity", "setting": "[2]", "result": "hygroscopic"},
      {"measurement": "Water content (hygroscopicity)", "setting": "[2]; 25° C./90% relative humidity", "result": "≤ 12", "unit": "% by weight"},
      {"measurement": "Solubility", "setting": "[3]", "result": "greater solubility"}
    ]},
    {"smiles": "CC[C@@H]1CN(C(=O)NCC(F)(F)F)C[C@@H]1c1cnc2cnc3[nH]ccc3n12", "note": "[Freebase Anhydrate Form D]", "values": [
      {"measurement": "Physical stability", "setting": "[1]", "result": "metastable relative to Freebase Hydrate Form C"},
      {"measurement": "Hygroscopicity", "setting": "[2]", "result": "reversibly hygroscopic"},
      {"measurement": "Water content (hygroscopicity)", "setting": "[2]; 90% RH at 25° C.", "result": "up to 1.8%"}
    ]},
    {"smiles": "CC[C@@H]1CN(C(=O)NCC(F)(F)F)C[C@@H]1c1cnc2cnc3[nH]ccc3n12", "note": "[Freebase Hydrate Form B]", "values": [
      {"measurement": "Physical stability", "setting": "[1]", "result": "not physically stable; also recorded: not stable after isolation at ambient conditions"}
    ]},
    {"smiles": "CC[C@@H]1CN(C(=O)NCC(F)(F)F)C[C@@H]1c1cnc2cnc3[nH]ccc3n12.CC[C@@H]1CN(C(=O)NCC(F)(F)F)C[C@@H]1c1cnc2cnc3[nH]ccc3n12.O", "note": "[Freebase Hydrate Form C]", "values": [
      {"measurement": "Chemical stability", "setting": "[1]", "result": "good chemical stability"},
      {"measurement": "Hygroscopicity", "setting": "[2]", "result": "low hygroscopicity"}
    ]},
    {"smiles": "CC[C@@H]1CN(C(=O)NCC(F)(F)F)C[C@@H]1c1cnc2cnc3[nH]ccc3n12", "note": "[UPA, upadacitinib]", "values": [
      {"measurement": "Clinical remission per Adapted Mayo Score at Week 52, %", "setting": "[4]; Bio-IR, UPA 15 mg QD N = 71", "result": 40.5, "unit": "%"},
      {"measurement": "Clinical remission at Week 52, Treatment Difference vs. PBO", "setting": "[4]; Bio-IR, UPA 15 mg", "result": 33.0, "unit": "%"},
      {"measurement": "Clinical remission per Adapted Mayo Score at Week 52, %", "setting": "[4]; Bio-IR, UPA 30 mg QD N = 73", "result": 49.1, "unit": "%"},
      {"measurement": "Clinical remission at Week 52, Treatment Difference vs. PBO", "setting": "[4]; Bio-IR, UPA 30 mg", "result": 41.6, "unit": "%"},
      {"measurement": "Clinical remission per Adapted Mayo Score at Week 52, %", "setting": "[4]; Non-Bio-IR, UPA 15 mg QD N = 77", "result": 43.9, "unit": "%"},
      {"measurement": "Clinical remission at Week 52, Treatment Difference vs. PBO", "setting": "[4]; Non-Bio-IR, UPA 15 mg", "result": 26.3, "unit": "%"},
      {"measurement": "Clinical remission per Adapted Mayo Score at Week 52, %", "setting": "[4]; Non-Bio-IR, UPA 30 mg QD N = 81", "result": 54.0, "unit": "%"},
      {"measurement": "Clinical remission at Week 52, Treatment Difference vs. PBO", "setting": "[4]; Non-Bio-IR, UPA 30 mg", "result": 36.3, "unit": "%"},
      {"measurement": "Discontinued from Study Drug, Adverse events (primary reason), %", "setting": "[4]; UPA 15 mg QD (N = 148)", "result": "(2.7) %"},
      {"measurement": "Discontinued from Study Drug, Lack of efficacy (primary reason), %", "setting": "[4]; UPA 15 mg QD (N = 148)", "result": "(23.6) %"},
      {"measurement": "Discontinued from Study Drug, Adverse events (primary reason), %", "setting": "[4]; UPA 30 mg QD (N = 154)", "result": "(5.2) %"},
      {"measurement": "Discontinued from Study Drug, Lack of efficacy (primary reason), %", "setting": "[4]; UPA 30 mg QD (N = 154)", "result": "(7.8) %"}
    ]},
    {"smiles": "CC[C@@H]1CN(C(=O)NCC(F)(F)F)C[C@@H]1c1cnc2cnc3[nH]ccc3n12", "note": "[upadacitinib, (3S,4R)-3-ethyl-4-(3H-imidazo[1,2-a]pyrrolo[2,3-e]pyrazin-8-yl)-N-(2,2,2-trifluoroethyl)pyrrolidine-1-carboxamide]", "values": [
      {"measurement": "clinical and endoscopic efficacy compared to placebo", "setting": "[5]", "result": "demonstrated the clinical and endoscopic efficacy"},
      {"measurement": "daily area under the concentration-time curve (AUC)", "setting": "[6]", "result": "equivalent"},
      {"measurement": "minimum plasma concentration (Cmin) and maximum plasma concentration (Cmax)", "setting": "[6]", "result": "comparable"},
      {"measurement": "Rates of severe adverse events and AEs leading to study drug discontinuation compared to placebo", "setting": "[7]; 45 mg", "result": "lower"},
      {"measurement": "Onset of clinical response per Partial Adapted Mayo Score", "setting": "[7]; 45 mg QD", "result": "as early as Week 2"},
      {"measurement": "Patients with clinical response at week 8", "setting": "[7]; 45 mg QD", "result": "approximately 75%"},
      {"measurement": "Rates of neutropenia, lymphopenia, hepatic disorder, and CPK elevation compared to placebo", "setting": "[7]; 45 mg QD", "result": "higher"},
      {"measurement": "Tolerability of eight-week induction treatment", "setting": "[7]; 45 mg QD", "result": "well tolerated"},
      {"measurement": "Week 8 non-responding patients with clinical response by 16 weeks", "setting": "[7]; 45 mg QD, additional 8 weeks", "result": "approximately 50%"},
      {"measurement": "Deaths", "setting": "[7]; 45 mg QD, 8 weeks", "result": "No deaths were reported"},
      {"measurement": "Primary and ranked secondary endpoints vs placebo", "setting": "[7]; 45 mg QD, 8 weeks, all p<0.001", "result": "met primary and all ranked secondary endpoints"},
      {"measurement": "Proportion of subjects achieving clinical remission per Adapted Mayo score at Week 8", "setting": "[7]; 45 mg QD, SFS ≤1 and not greater than baseline, RBS 0, endoscopic subscore ≤1", "result": 33.5, "unit": "%"},
      {"measurement": "Clinical remission per Adapted Mayo score at Week 52, proportion of subjects", "setting": "[4]; 15 mg QD maintenance after 8 weeks 45 mg QD induction", "result": 42.3, "unit": "%"},
      {"measurement": "Safety and tolerability", "setting": "[4]; 15 mg and 30 mg QD, 52 weeks", "result": "generally safe and well tolerated"},
      {"measurement": "Corticosteroid-free remission, % of patients", "setting": "[4]; 15 mg cohort", "result": 57, "unit": "%"},
      {"measurement": "Clinical remission (per Adapted Mayo Score)", "setting": "[4]; 15 mg once daily (n = 148)", "result": 42, "unit": "%"},
      {"measurement": "Endoscopic improvement", "setting": "[4]; 15 mg once daily (n = 148)", "result": 49, "unit": "%"},
      {"measurement": "Histologic-endoscopic mucosal improvement", "setting": "[4]; 15 mg once daily (n = 148)", "result": 35, "unit": "%"},
      {"measurement": "Corticosteroid-free clinical remission", "setting": "[4]; 15 mg once daily, N = 47", "result": 57, "unit": "%"},
      {"measurement": "Clinical remission per Adapted Mayo score at Week 52, proportion of subjects", "setting": "[4]; 30 mg QD maintenance after 8 weeks 45 mg QD induction", "result": 51.7, "unit": "%"},
      {"measurement": "Corticosteroid-free remission, % of patients", "setting": "[4]; 30 mg cohort", "result": 68, "unit": "%"},
      {"measurement": "Clinical remission (per Adapted Mayo Score)", "setting": "[4]; 30 mg once daily (n = 154)", "result": 52, "unit": "%"},
      {"measurement": "Endoscopic improvement", "setting": "[4]; 30 mg once daily (n = 154)", "result": 62, "unit": "%"},
      {"measurement": "Histologic-endoscopic mucosal improvement", "setting": "[4]; 30 mg once daily (n = 154)", "result": 49, "unit": "%"},
      {"measurement": "Corticosteroid-free clinical remission", "setting": "[4]; 30 mg once daily, N = 58", "result": 68, "unit": "%"},
      {"measurement": "Clinical response per Partial Adapted Mayo Score and clinical remission rate per Partial Mayo Score over time", "setting": "[4]; both upadacitinib groups (15 mg, 30 mg)", "result": "maintained over time until Week 52"},
      {"measurement": "Upadacitinib pharmacokinetics, induction vs maintenance periods", "setting": "[4]; subjects with UC", "result": "consistent between the induction and maintenance periods"}
    ]}
  ]
}
